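Each compound was tested at five concentrations against cells in 96-well plates for 48 hours. Abbreviation: GI50, concentration required for 50% inhibition of growth. TGI denotes the concentration required for complete inhibition of growth.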
Tests used:
Assay in all cases: NCI-60 cell line screen, 48 h
[1] = tested on: HCC-2998 colon
[2] = tested on: 786-0 renal
[3] = tested on: HT29 colon
[4] = tested on: UACC-257 melanoma
[5] = tested on: IGROV1 ovarian
[6] = tested on: OVCAR-8 ovarian
[7] = tested on: A549 NSCLC
[8] = tested on: HCT-116 colon
[9] = tested on: MALME-3M melanoma
[10] = tested on: MDA-MB-435
[11] = tested on: UACC-62 melanoma
[12] = tested on: K-562 leukemia
[13] = tested on: SNB-75 CNS
[14] = tested on: NCI-H23 lung
[15] = tested on: DU-145 prostate
[16] = tested on: RXF 393 renal
[17] = tested on: HCT-15 colon
[18] = tested on: HS 578T breast
[19] = tested on: OVCAR-5 ovarian
[20] = tested on: NCI-H460 lung
[21] = tested on: NCI-H522 lung
[22] = tested on: LOX IMVI melanoma
[23] = tested on: A498 renal
[24] = tested on: U251 CNS
[25] = tested on: SF-268 CNS
[26] = tested on: HL-60(TB) leukemia
[27] = tested on: T-47D breast
[28] = tested on: MDA-MB-231 breast
[29] = tested on: SK-MEL-28 melanoma
[30] = tested on: BT-549 breast
[31] = tested on: ACHN renal
[32] = tested on: NCI/ADR-RES ovarian
[33] = tested on: MOLT-4 leukemia
[34] = tested on: CCRF-CEM leukemia
[35] = tested on: SF-295 CNS
[36] = tested on: SK-MEL-5 melanoma
[37] = tested on: SR leukemia
[38] = tested on: OVCAR-3 ovarian
[39] = tested on: M14 melanoma
[40] = tested on: SW-620 colon
[41] = tested on: SK-MEL-2 melanoma
[42] = tested on: CAKI-1 renal
[43] = tested on: MCF7 breast
[44] = tested on: SK-OV-3 ovarian
[45] = tested on: TK-10 renal
[46] = tested on: KM12 colon
[47] = tested on: HOP-92 NSCLC
[48] = tested on: SN12C renal
[49] = tested on: COLO 205 colon
[50] = tested on: PC-3 prostate
[51] = tested on: UO-31 renal
[52] = tested on: NCI-H226 lung
[53] = tested on: SNB-19 CNS
[54] = tested on: SF-539 CNS
[55] = tested on: HOP-62 NSCLC

Question: Which results are given for `COc1ccc(/C=C2\CCCC3=C2N=C2SC=NN2C3c2ccc(OC)c(OC)c2)cc1OC` (stereo not given)?
Answer: GI50 [1]: > 100 µM; TGI [1]: > 100 µM; GI50 [2]: 25.3 µM; TGI [2]: > 100 µM; GI50 [3]: 19.9 µM; TGI [3]: > 100 µM; GI50 [4]: 10.5 µM; TGI [4]: > 100 µM; GI50 [5]: 28.9 µM; TGI [5]: > 100 µM; GI50 [6]: 5.51 µM; TGI [6]: > 100 µM; GI50 [7]: 30.5 µM; TGI [7]: > 100 µM; GI50 [8]: 4.79 µM; TGI [8]: 32.5 µM; GI50 [9]: 22.6 µM; TGI [9]: 78.7 µM; GI50 [10]: 3.51 µM; TGI [10]: 42.8 µM; GI50 [11]: 4.21 µM; TGI [11]: 80 µM; GI50 [12]: 6.09 µM; TGI [12]: > 100 µM; GI50 [13]: 9.38 µM; TGI [13]: 44.1 µM; GI50 [14]: 22.4 µM; TGI [14]: > 100 µM; GI50 [15]: 23 µM; TGI [15]: > 100 µM; GI50 [16]: 4.91 µM; TGI [16]: 24.3 µM; GI50 [17]: 5.58 µM; TGI [17]: 60.5 µM; GI50 [18]: 28.2 µM; TGI [18]: > 100 µM; GI50 [19]: 47.7 µM; TGI [19]: > 100 µM; GI50 [20]: 22.4 µM; TGI [20]: > 100 µM; GI50 [21]: 17.9 µM; TGI [21]: > 100 µM; GI50 [22]: 16.6 µM; TGI [22]: 75.1 µM; GI50 [23]: 2.76 µM; TGI [23]: 40.8 µM; GI50 [24]: 22.7 µM; TGI [24]: > 100 µM; GI50 [25]: 19.9 µM; TGI [25]: > 100 µM; GI50 [26]: 22.2 µM; TGI [26]: 78 µM; GI50 [27]: 5.21 µM; TGI [27]: > 100 µM; GI50 [28]: 26 µM; TGI [28]: > 100 µM; GI50 [29]: 19.3 µM; TGI [29]: > 100 µM; GI50 [30]: 21.9 µM; TGI [30]: > 100 µM; GI50 [31]: 7.71 µM; TGI [31]: > 100 µM; GI50 [32]: 18.2 µM; TGI [32]: > 100 µM; GI50 [33]: 21.4 µM; TGI [33]: > 100 µM; GI50 [34]: 6.16 µM; TGI [34]: > 100 µM; GI50 [35]: 32.7 µM; TGI [35]: > 100 µM; GI50 [36]: 16.4 µM; TGI [36]: > 100 µM; GI50 [37]: 5.65 µM; TGI [37]: 66.1 µM; GI50 [38]: 4.62 µM; TGI [38]: 75.4 µM; GI50 [39]: 11.9 µM; TGI [39]: > 100 µM; GI50 [40]: 10.1 µM; TGI [40]: 39.3 µM; GI50 [41]: 25.8 µM; TGI [41]: > 100 µM; GI50 [42]: 7.43 µM; TGI [42]: > 100 µM; GI50 [43]: 2.42 µM; TGI [43]: > 100 µM; GI50 [44]: 56.4 µM; TGI [44]: > 100 µM; GI50 [45]: 21 µM; TGI [45]: 76.2 µM; GI50 [46]: 11.8 µM; TGI [46]: > 100 µM; GI50 [47]: 11.6 µM; TGI [47]: 58.9 µM; GI50 [48]: 18.2 µM; TGI [48]: > 100 µM; GI50 [49]: 7.58 µM; TGI [49]: > 100 µM; GI50 [50]: 37.8 µM; TGI [50]: > 100 µM; GI50 [51]: 15.3 µM; TGI [51]: > 100 µM; GI50 [52]: 18.5 µM; TGI [52]: 89.2 µM; GI50 [53]: 32.9 µM; TGI [53]: > 100 µM; GI50 [54]: 14.6 µM; TGI [54]: 68.5 µM; GI50 [55]: 24.3 µM; TGI [55]: > 100 µM
